Measured values reported in patent US4652575A, “2-(ethylene-thio methyl furanyl)amino thiazole derivatives having acid secretion inhibiting activity” (Medosan Industrie Biochimiche Riunite S.p.A., priority 1984, dated 1987).
Where two headings read alike, the source gives them in different places.

Key:
[1] = target: T1, histamine H2 receptors (Cavia porcellus, UniProt P47747); experiment: Antagonistic activity to the histamine H2 receptors "in vitro" on insulated atrium auricolas of Guinea pig heart; conditions: guinea pig, 0.5 h; for inhibition at 10 µM: read-out: Antagonizing activity to histamine H2 receptors, compound 1·10^-5 M/L; for inhibition at 1 µM: read-out: Antagonizing activity to histamine H2 receptors, compound 1·10^-6 M/L; for inhibition at 0.1 µM: read-out: Antagonizing activity to histamine H2 receptors, compound 1·10^-7 M/L
T1 construct: tests on insulated atrium auricolas of Guinea pig heart; from tissue; host or cells: isolated guinea pig heart atrium
Method: (§1) The preparations were a solution of the substances in 2.5% citric acid for the "in vitro" test and 5% citric acid for the "in vivo" test respectively. Citric acid was diluted in normal physiologic saline at neutral pH.
This activity was evaluated "in vitro" by carrying out tests on insulated atrium auricolas of Guinea pig heart. […] Metering was carried out by placing the preparation into a vessel containing a Ringer-Locke solution wherein pure oxygen was bubbling, at a temperature of 37° C. A response of the organ "in vitro" was first established at cumulative histamine doses of 2.5.10^-7, 5.10^-7, 10^-6, 5.10^-6, 10^-5 M/L. After obtaining two constant lines with histamine at a time interval of one hour from one another, the substances under test were added to the bath and after a 30 minutes contact with the preparation, a new histamine response line in the presence of the substance under test was drawn. The activity was tested at various concentrations of the new compounds (10^-5, 10^-6, 10^-7 and in one case 10^-8 M/L).

[2] = system: gastric secretion; experiment: Activity on gastric secretion "in vivo" (volume and total acidity of gastric juice after pylorus tieing, Shay); set-up: species or system male Wistar rats; conditions: for Total acidity gastric juice secretion / Volume gastric juice secretion / change in vivo at 20 mg/kg: 20 mg/kg oral
Method: as §1
The ability of the compounds according to the present invention to inhibit the gastric secretion was studied "in vivo" both by evaluating the volume reduction of gastric juice, and by measuring the total acidity of same after administration of the substances under test according to the Takeda method (see the aforementioned literature).
To this end, tests have been made on male Wistar rats of an average weight of 200 g. The animals, 10 for each substance, were placed into individual cages provided with ground grating in order to avoid coprophagy, without food but with free access to water for 24 hours before test. […] Four hours later the animals were sacrificed and the gastric juice was collected, of which the volume expressed in ml and the total acidity expressed in mEq was measured. The gastric juice ([…] ) was titrated with 0.1N NaOH to pH 7 to determine the acid concentration. The total acidity was then calculated as the product of the total volume of gastric juice by the acid concentration.

[3] = Acute toxicity (DL50) in rat; conditions: in vivo, po
Text: The animals were kept under observation by checking mortality and possible pain signs for 15 days from start of test.

[4] = target: T1, histamine H2 receptors; conditions: Daly M. J., Br. J. Pharmac., 72, 49, 1982; cited from earlier work
[5] = system: gastric acid secretion; conditions: experimental tests on animals and humans; prior art; cited from earlier work

T1 sequence (P47747 whole entry): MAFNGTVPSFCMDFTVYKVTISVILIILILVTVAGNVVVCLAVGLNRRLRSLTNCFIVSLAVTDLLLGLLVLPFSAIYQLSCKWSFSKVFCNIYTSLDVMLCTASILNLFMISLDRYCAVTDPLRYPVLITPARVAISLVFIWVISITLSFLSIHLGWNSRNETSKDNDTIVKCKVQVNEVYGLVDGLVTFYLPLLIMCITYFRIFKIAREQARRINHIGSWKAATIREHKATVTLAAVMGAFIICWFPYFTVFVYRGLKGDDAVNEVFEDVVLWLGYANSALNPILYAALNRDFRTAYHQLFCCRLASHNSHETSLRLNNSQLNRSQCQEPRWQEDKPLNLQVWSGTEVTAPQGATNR

CNC(=C[N+](=O)[O-])NCCSCc1ccc(CN(C)C)o1 [Ranitidine, reference compound]
inhibition at 10 µM ([1]; histamine 1·10^-5 M/L): 90%
inhibition at 10 µM ([1]; histamine 1·10^-6 M/L): 100%
inhibition at 10 µM ([1]; histamine 2,5·10^-7 M/L): 100%
inhibition at 10 µM ([1]; histamine 5·10^-6 M/L): 95%
inhibition at 10 µM ([1]; histamine 5·10^-7 M/L): 100%
inhibition at 1 µM ([1]; histamine 1·10^-5 M/L): 36%
inhibition at 1 µM ([1]; histamine 1·10^-6 M/L): 97%
inhibition at 1 µM ([1]; histamine 2,5·10^-7 M/L): 100%
inhibition at 1 µM ([1]; histamine 5·10^-6 M/L): 67%
inhibition at 1 µM ([1]; histamine 5·10^-7 M/L): 100%
inhibition at 0.1 µM ([1]; histamine 1·10^-5 M/L): 2%
inhibition at 0.1 µM ([1]; histamine 1·10^-6 M/L): 45%
inhibition at 0.1 µM ([1]; histamine 2,5·10^-7 M/L): 85%
inhibition at 0.1 µM ([1]; histamine 5·10^-6 M/L): 25%
inhibition at 0.1 µM ([1]; histamine 5·10^-7 M/L): 70%
Total acidity gastric juice secretion ([2]; 6 hours before pilorus tieing): 0,12 mEq/4 hours
Volume gastric juice secretion ([2]; 6 hours before pilorus tieing): 4,8 ml/4 hours
Total acidity gastric juice secretion ([2]; 12 hours before pilorus tieing): 0,16 mEq/4 hours
Volume gastric juice secretion ([2]; 12 hours before pilorus tieing): 4,9 ml/4 hours
Total acidity gastric juice secretion ([2]; 24 hours before pilorus tieing): 0,17 mEq/4 hours
Volume gastric juice secretion ([2]; 24 hours before pilorus tieing): 5,3 ml/4 hours
Total acidity gastric juice secretion ([2]; 36 hours before pilorus tieing): 0,16 mEq/4 hours
Volume gastric juice secretion ([2]; 36 hours before pilorus tieing): 5,4 ml/4 hours
change in vivo at 20 mg/kg ([2]; Rattus norvegicus, po, 6 hours before pilorus tieing, read-out: Total acidity gastric juice secretion, Variation %): -29%
change in vivo at 20 mg/kg ([2]; Rattus norvegicus, po, 6 hours before pilorus tieing, read-out: Volume gastric juice secretion, Variation %): -9%
change in vivo at 20 mg/kg ([2]; Rattus norvegicus, po, 12 hours before pilorus tieing, read-out: Total acidity gastric juice secretion, Variation %): 6%
change in vivo at 20 mg/kg ([2]; Rattus norvegicus, po, 12 hours before pilorus tieing, read-out: Volume gastric juice secretion, Variation %): -4%
change in vivo at 20 mg/kg ([2]; Rattus norvegicus, po, 24 hours before pilorus tieing, read-out: Total acidity gastric juice secretion, Variation %): 0%
change in vivo at 20 mg/kg ([2]; Rattus norvegicus, po, 24 hours before pilorus tieing, read-out: Volume gastric juice secretion, Variation %): -5%
change in vivo at 20 mg/kg ([2]; Rattus norvegicus, po, 36 hours before pilorus tieing, read-out: Total acidity gastric juice secretion, Variation %): 0%
change in vivo at 20 mg/kg ([2]; Rattus norvegicus, po, 36 hours before pilorus tieing, read-out: Volume gastric juice secretion, Variation %): -3%
ED50 ([2]; Rattus norvegicus, po, per os, 1 hour before pilorus tieing, read-out: DE50 in rat calculated on total acidity (mEq/4 hours)): 5.2 mg/kg
LD50 [3]: 2000 mg/kg
LD50 at 360 h [3]: 1600 mg/kg
antagonism of histamine induced increase of contraction frequency of the insulated atrium (in words) [4]: competitively antagonize
reduction of gastric acid secretion (in words) [5]: effective to reduce the gastric acid secretion
